Test system: bacteria on a surface, such as a person's skin
Experiment: Nitric oxide dose required to kill bacteria on a surface
Details: ppm of nitric oxide

[N]=O [nitric oxide]
dose required to kill bacteria on a surface: ≥ 320 ppm
